Laboratory results reported in ChEMBL document CHEMBL5331060, “Bisindole natural products: A vital source for the development of new anticancer drugs” (Eur J Med Chem, 2022).
pIC50: −log10 of the molar value. In brackets after ≈: the same amount, converted by molar mass. Each block holds one compound with its values, some of them ahead of it.

Assays:
Format in all cases: functional, cell-based
A549 [1] = test: Antiproliferative activity against human A549 cells assessed as inhibition of cell growth incubated for 72 hrs by SRB assay; conditions: A549, 72 h
MCF7 [2] = test: Antiproliferative activity against human MCF7 cells assessed as inhibition of cell growth incubated for 72 hrs by SRB assay; conditions: MCF7, 72 h
K562 [3] = test: Antiproliferative activity against human K562 cells assessed as inhibition of cell growth by MTT assay
A549 [4] = test: Antiproliferative activity against human A549 cells assessed as inhibition of cell growth by MTT assay
HL-60 [5] = test: Antiproliferative activity against human HL-60 cells assessed as inhibition of cell growth incubated for 48 hrs by WST-1 assay; conditions: HL-60, 48 h
K562 [6] = test: Antiproliferative activity against human K562 cells assessed as inhibition of cell growth incubated for 48 hrs by WST-1 assay; conditions: K562, 48 h
MCF7 [7] = test: Antiproliferative activity against human MCF7 cells assessed as inhibition of cell growth incubated for 48 hrs by MTT assay; conditions: MCF7, 48 h
SW480 = test: Antiproliferative activity against human SW480 cells assessed as inhibition of cell growth incubated for 48 hrs by MTT assay; conditions: SW480, 48 h
A549 [8] = test: Antiproliferative activity against human A549 cells assessed as inhibition of cell growth incubated for 48 hrs by MTT assay; conditions: A549, 48 h
HL-60 [9] = test: Antiproliferative activity against human HL-60 cells assessed as inhibition of cell growth incubated for 48 hrs by MTT assay; conditions: HL-60, 48 h
SMMC-7721 = test: Antiproliferative activity against human SMMC-7721 cells assessed as inhibition of cell growth incubated for 48 hrs by MTT assay; conditions: SMMC-7721, 48 h
AGS = test: Antiproliferative activity against human AGS cells assessed as inhibition of cell growth incubated for 24 hrs by MTT assay
L1210 = test: Antiproliferative activity against mouse L1210 cells assessed as inhibition of cell growth incubated for 24 hrs by MTT assay; conditions: L1210, 24 h

- pIC50 (HL-60 [5]): < 4.00
- pIC50 (K562 [6]): < 4.00
SMILES: CCC(=O)[C@H](O)[C@@H]1CN(C=O)CCc2c([nH]c3ccccc23)[C@@](C(=O)OC)(c2cc3c(cc2OC)N(C)[C@H]2[C@@](O)(C(=O)OC)[C@H](OC(C)=O)[C@]4(CC)C=CCN5CC[C@]32[C@@H]54)C1

- pIC50 (MCF7 [7]): 5.54
- pIC50 (SW480): 5.54
- pIC50 (A549 [8]): 5.54
- pIC50 (HL-60 [9]): 5.54
- pIC50 (SMMC-7721): 5.54
SMILES: C/C=C1/CN(C)[C@@]2(C)Cc3c([nH]c4ccccc34)[C@H](c3c(OC)ccc4c3NC3[C@@]4(O)CCN4C[C@H]5C[C@H](CC)[C@H]4[C@@]3(C(=O)OC)C5)C[C@H]1[C@]2(COC(C)=O)C(=O)OC (stereo partly specified)

- pIC50 (A549 [1]): < 5.00
- pIC50 (MCF7 [2]): > 5.00
SMILES: CC[C@@H]1CN(C)[C@H]2Cc3c([nH]c4ccccc34)[C@H](c3cc4c5c([nH]c4cc3OC)[C@@]3(C(=O)OC)C[C@H]4C[C@@H](CC)[C@@H]3N(CC5)C4)C[C@H]1[C@@H]2C(=O)OC

- pIC50 (A549 [1]): > 5.00
- pIC50 (MCF7 [2]): > 5.00
SMILES: CC[C@@H]1CN(C)[C@H]2Cc3c([nH]c4ccccc34)[C@H](c3ccc4[nH]c5c(c4c3)CCN3C[C@@H]4C[C@@H](CC)[C@H]3[C@@H]5C4)C[C@H]1[C@@H]2C(=O)OC

- pIC50 (A549 [1]): < 5.00
- pIC50 (MCF7 [2]): > 5.00
SMILES: CC[C@@H]1CN(C)[C@H]2Cc3c([nH]c4ccccc34)[C@H](c3cc4[nH]c5c(c4cc3OC)CCN3[C@H](CC(C)=O)[C@H]4C[C@H](CC)[C@H]3[C@@]5(C(=O)OC)C4)C[C@H]1[C@@H]2C(=O)OC

- pIC50 (HL-60 [5]): 4.25
- pIC50 (K562 [6]): 4.25
SMILES: CC[C@]12CN3CC[C@@]45C(=Nc6ccccc64)[C@@](C(=O)OC)(c4cc6c(cc4OC)N(C)[C@H]4[C@@](O)(C(=O)OC)[C@H](OC(C)=O)[C@]7(CC)C=CCN8CC[C@]64[C@@H]87)C[C@H]([C@H]1O2)[C@H]35

- pIC50 (A549 [1]): > 5.00
- pIC50 (MCF7 [2]): > 5.00
SMILES: C/C=C1/CN(C)[C@H]2Cc3c([nH]c4ccccc34)[C@H](c3ccc4[nH]c5c(c4c3)CCN3C[C@@H]4C[C@H](CC)[C@H]3[C@@H]5C4)C[C@H]1[C@@H]2C(=O)OC

- pIC50 (MCF7 [7]): 5.49
- pIC50 (SW480): 5.49
- pIC50 (A549 [8]): 5.49
- pIC50 (HL-60 [9]): 5.49
- pIC50 (SMMC-7721): 5.49
SMILES: CC[C@]12CCCN3CCc4c(n(c5ccccc45)[C@@H](c4cc5c(cc4OC)NC4=C(C(=O)OC)C[C@]6(CC)CCCN7CC[C@@]45[C@@H]76)C1)[C@@H]32

Second part, the compound before the results:

SMILES: CC[C@@H]1CN(C)[C@H]2Cc3c([nH]c4ccccc34)[C@H](c3ccc4c5c([nH]c4c3)[C@@H]3C[C@@H]4C[C@H](CC)[C@@H]3N(CC5)[C@@H]4CC(C)=O)C[C@H]1[C@@H]2C(=O)OC
- pIC50 (A549 [1]): > 5.00
- pIC50 (MCF7 [2]): > 5.00

SMILES: O=C(NCC(=O)c1c[nH]c2ccccc12)NC(=O)c1c[nH]c2cc(O)ccc12
- pIC50 (K562 [3]): < 4.05
- pIC50 (A549 [4]): < 4.05

SMILES: C/C=C1/CN2COC[C@]3(C(=O)OC)[C@@H]1C[C@@H](c1cccc4c5c([nH]c14)[C@]1(C(=O)OC)C[C@@H]4C[C@H](CC)[C@@H]1N(CC5)[C@@H]4CC(C)=O)c1[nH]c4ccccc4c1C[C@]23C
- pIC50 (MCF7 [7]): 5.54
- pIC50 (SW480): 5.54
- pIC50 (A549 [8]): 5.54
- pIC50 (HL-60 [9]): 5.54
- pIC50 (SMMC-7721): 5.54

SMILES: CC[C@@H]1CN(C)[C@H]2Cc3c([nH]c4ccccc34)[C@H](c3c(OC)ccc4c5c([nH]c34)[C@]3(C(=O)OC)C[C@@H]4C[C@H](CC)[C@@H]3N(CC5)[C@@H]4CC(C)=O)C[C@H]1[C@@H]2C(=O)OC
- pIC50 (A549 [1]): 4.96
- pIC50 (MCF7 [2]): 4.96

SMILES: CC(=O)C[C@@H]1c2c([nH]c3ccccc23)[C@H](c2c[nH]c3ccccc23)[C@H]1C(C)=O
- pIC50 (K562 [3]): 5.66

SMILES: CO[C@@]1(C(=O)c2c[nH]c3ccccc23)N=C(c2c[nH]c3cc(Br)ccc23)C(=O)N1
- pIC50 (K562 [3]): 4.62
- pIC50 (A549 [4]): 4.62

SMILES: O=C(NCC(=O)c1c[nH]c2cc(Br)ccc12)NC(=O)c1c[nH]c2cc(O)ccc12
- pIC50 (K562 [3]): < 4.05
- pIC50 (A549 [4]): < 4.05

SMILES: CO[C@@]1(C(=O)c2c[nH]c3ccccc23)N=C(c2c[nH]c3ccccc23)C(=O)N1
- pIC50 (K562 [3]): 4.62
- pIC50 (A549 [4]): 4.62

SMILES: CC[C@@H]1CN(C)[C@H]2Cc3c([nH]c4ccccc34)[C@H](c3ccc4[nH]c5c(c4c3)CCN3[C@H](CC(C)=O)[C@@H]4C[C@@H](CC)[C@H]3[C@]5(C(=O)OC)C4)C[C@H]1[C@@H]2C(=O)OC
- pIC50 (A549 [1]): 4.96
- pIC50 (MCF7 [2]): 4.96

SMILES: O=C(c1nc(-c2c[nH]c3cc(Br)ccc23)c[nH]1)c1c[nH]c2cc(O)ccc12 [BROMOTOPSENTIN]
- IC50 (AGS): 1.1 µg/mL (≈ 2.61 µM)
- IC50 (L1210): 1.1 µg/mL (≈ 2.61 µM)

SMILES: O=C1NC[C@H](c2c[nH]c3cc(Br)ccc23)N=C1c1c[nH]c2cc(Br)ccc12 [HAMACANTHIN B]
- IC50 (AGS): 1.1 µg/mL (≈ 2.26 µM)
- IC50 (L1210): 1.1 µg/mL (≈ 2.26 µM)
